From patent US20030068615A1, “Polypeptides that bind HIV gp120 and related nucleic acids, antibodies, compositions, and methods of use” (priority 1999, published 2003)
“And” between values parts separate entries of the source, which are not always exact repeats. Equal values may be shown once. Read-outs that look alike come from different tables or passages of the source.

Target: HIV-1LAI envelope gp120 (Human immunodeficiency virus type 1 group M subtype B, UniProt P03377)
Assay type: binding
Details: for Counts per 20′ Average-background: CCR5 18-mer scan; for number of radioactive decays (counts) counted: human CD4 21-mer scan, empty control 2075
[1] = Panel B, 15-mers and 18-mers of CD4, empty control 575
[2] = CXCR4 18-mer scan, background subtracted, empty control 0
[3] = CXCR4 18-mer scan, empty control 412
[4] = Panel D, 9-mers and 12-mers of CD4, empty control […]
[5] = STRL33 18-mer scan, background subtracted, first of two count columns
[6] = STRL33 18-mer scan, background subtracted, second of two count columns
[7] = Panel C, 15-mers and 18-mers of CD4, empty control 556
[8] = radiolabeled HIV-1LAI gp120, background subtracted
[9] = Panel E, 9-mers and 12-mers of CD4, empty control 571
[10] = Panel A, 21-mers of CD4, empty control 515 and 617
[11] = Panel F, sequential alanine replacements of CD4 polypeptides, duplicate series, empty control 569
[12] = Panel G, alanine replacements and serial truncations (Z) of CD4 polypeptides, empty control 580

WDQGNFPLIIKNLKI
COUNTS of radiolabeled gp120 retained [1]: 534 counts

FHCCLNPILYAFLGAKFK [CXCR4 segment 293-310]
radioactive counts recorded in twenty minutes [2]: 123 counts | radioactive counts recorded in twenty minutes [3]: 535 counts

SDTYICEVEDQK
COUNTS of radiolabeled gp120 retained [4]: 846 counts

KIEDSDTYICEVEDQ
COUNTS of radiolabeled gp120 retained [1]: 1088 counts

TVVLATQMTLGFFLPLLT [STRL33 segment 189-206]
radioactive counts recorded in twenty minutes [5]: 2327.5 counts | radioactive counts recorded in twenty minutes [6]: 2389.5 counts

CEVEDQKEEVQLLVFGLT
COUNTS of radiolabeled gp120 retained [1]: 3797 counts

VEFKIDIVVLAFQKA
COUNTS of radiolabeled gp120 retained [7]: 1005 counts

HWEYYAMTSFHYTIMVTE [STRL33 segment 257-274]
radioactive counts recorded in twenty minutes [5]: 2040.5 counts | radioactive counts recorded in twenty minutes [6]: 3065.5 counts

VMVICYSGILKTLLRCRN [CCR5 segment 209-]
Counts per 20′ Average-background [8]: −8 counts per 20′

YGFSSFNDSSQEEHQAFL
Binding Results For Window Length (counts bound-background), 9 (STRL33 amino terminus, 9-mer starting at the first residue of the printed sequence, background subtracted): 345 counts | Binding Results For Window Length (counts bound-background), 12 (STRL33 amino terminus, 12-mer starting at the first residue of the printed sequence, background subtracted): 745 counts | Binding Results For Window Length (counts bound-background), 15 (STRL33 amino terminus, 15-mer starting at the first residue of the printed sequence, background subtracted): 645 counts | Binding Results For Window Length (counts bound-background), 18 (STRL33 amino terminus, 18-mer starting at the first residue of the printed sequence, background subtracted): 1138 counts

LAFQKASSIVYKKEGEQV
COUNTS of radiolabeled gp120 retained [7]: 665 counts

IVGNGLVILVMGYQKKLR [CXCR4 segment 53-70]
radioactive counts recorded in twenty minutes [2]: 238 counts | radioactive counts recorded in twenty minutes [3]: 650 counts

EFKIDIVVLAFQKASSIV
COUNTS of radiolabeled gp120 retained [7]: 799 counts

VCYSVIIKTLLHAGGFQK [STRL33 segment 209-226]
radioactive counts recorded in twenty minutes [5]: 1334.5 counts | radioactive counts recorded in twenty minutes [6]: 1143.5 counts

MDYAVSSPIYDINYYTSE [CCR5 (1-18) variant Q4A]
Relative % of Control (CCR5 (1-18) alanine variants, mean of two syntheses and binding experiments ± average deviation, wild-type = 100%): 104 ± 7% | percentage of binding of mutant polypeptide compared to wild-type polypeptide, gp120 (CCR5 alanine mutant peptide, radiolabeled HIV-1LAI gp120): 104%

NSDTHLLQGQSL
COUNTS of radiolabeled gp120 retained [4]: 585 counts

LAFTVEKLTGSGELW
COUNTS of radiolabeled gp120 retained [7]: 579 counts

MTWGKVTSLLIWVISLLV
radioactive counts recorded in twenty minutes [5]: −0.5 counts | radioactive counts recorded in twenty minutes [6]: −26.5 counts

EKKTCQCPHRFQKTCSPI
number of radioactive decays (counts) counted: 2006 counts

NQKKVEFKIDIVVLAFQK
COUNTS of radiolabeled gp120 retained [7]: 889 counts

LLVFGLTAN
COUNTS of radiolabeled gp120 retained [4]: 576 counts

IFFCVRCRHRRRQAERMSQIK
number of radioactive decays (counts) counted: 2085 counts

LPYLGVSHQWKSSEDNSK
radioactive counts recorded in twenty minutes [5]: 111.5 counts | radioactive counts recorded in twenty minutes [6]: 122.5 counts

LTGSGELWW
COUNTS of radiolabeled gp120 retained [9]: 550 counts

TGSGELWWQ
COUNTS of radiolabeled gp120 retained [9]: 507 counts

VEDQKEEVQ
COUNTS of radiolabeled gp120 retained [4]: 521 counts

IDIVVLAFQKASSIVYKKEGE
COUNTS of radiolabeled gp120 retained [10]: 962 counts

LVFGLTANSDTHLLQGQS
COUNTS of radiolabeled gp120 retained [1]: 564 counts

FPLIIKNLKIED
COUNTS of radiolabeled gp120 retained [4]: 511 counts

DSDTYICEVEDQ
COUNTS of radiolabeled gp120 retained [4]: 937 counts

KVEFKIDIV
COUNTS of radiolabeled gp120 retained [9]: 555 counts

AYNQQAKRMTWGKVTSLL [STRL33 segment 137-154]
radioactive counts recorded in twenty minutes [5]: 55.5 counts | radioactive counts recorded in twenty minutes [6]: 4.5 counts

RNEKKRHRAVRLIFTIMI [CCR5 segment 225-]
Counts per 20′ Average-background [8]: 23 counts per 20′

SIVYKKEGEQVE
COUNTS of radiolabeled gp120 retained [9]: 543 counts

NANFNKIFLPTIYSIIFL [CXCR4 segment 33-50]
radioactive counts recorded in twenty minutes [2]: 173 counts | radioactive counts recorded in twenty minutes [3]: 585 counts

FKIDIVVLAFQKASSIVY
COUNTS of radiolabeled gp120 retained [7]: 843 counts

TVLQNQKKVEFKIDIVVL
COUNTS of radiolabeled gp120 retained [7]: 655 counts

PVLYAFVSLKFRKNFWKL [STRL33 segment 285-302]
radioactive counts recorded in twenty minutes [5]: 1859.5 counts | radioactive counts recorded in twenty minutes [6]: 2147.5 counts

KNLKIEDSDTYI
COUNTS of radiolabeled gp120 retained [4]: 523 counts

GNFPLIIKNLKI
COUNTS of radiolabeled gp120 retained [4]: 547 counts

DQKEEVQLL
COUNTS of radiolabeled gp120 retained [4]: 589 counts

CQLLTGLYFIGFFSGIFF
Counts per 20′ Average-background [8]: 489 counts per 20′

NLKIEDSDT
COUNTS of radiolabeled gp120 retained [4]: 512 counts

KEGEQVEFS
COUNTS of radiolabeled gp120 retained [9]: 595 counts

LAFQKASSIVYKKEG
COUNTS of radiolabeled gp120 retained [7]: 593 counts

GEQVEFSFPLAFTVEKLT
COUNTS of radiolabeled gp120 retained [7]: 1643 counts

LPGIIFTRSQKEGLHYTC
Counts per 20′ Average-background [8]: 118 counts per 20′

LTMIVCYSVIIKTLLHAG [STRL33 segment 205-222]
radioactive counts recorded in twenty minutes [5]: 2787.5 counts | radioactive counts recorded in twenty minutes [6]: 2654.5 counts

SDTYICEVEDQKEEVQLL
COUNTS of radiolabeled gp120 retained [1]: 870 counts

QLLVFGLTANSDTHL
COUNTS of radiolabeled gp120 retained [1]: 865 counts

VYKKEGEQV
COUNTS of radiolabeled gp120 retained [9]: 490 counts

TGLYFIGFFSGIFFIILL
Counts per 20′ Average-background [8]: 80 counts per 20′

FISLDRYLAIVHATNSQR
radioactive counts recorded in twenty minutes [2]: 91 counts | radioactive counts recorded in twenty minutes [3]: 503 counts

KLICGYHDEAISTVVLAT [STRL33 segment 177-194]
radioactive counts recorded in twenty minutes [5]: 1363.5 counts | radioactive counts recorded in twenty minutes [6]: 1604.5 counts

SIVYKKEGE
COUNTS of radiolabeled gp120 retained [9]: 566 counts

WTCTVLQNQKKVEFKIDI
COUNTS of radiolabeled gp120 retained [7]: 588 counts

TALLQGQSLTLTLES
COUNTS of radiolabeled gp120 retained [11]: 6931 counts and 5012 counts

NLKIEDSDTYIC
COUNTS of radiolabeled gp120 retained [4]: 639 counts

LPYYIGISIDSFILLEII
radioactive counts recorded in twenty minutes [2]: 439 counts | radioactive counts recorded in twenty minutes [3]: 851 counts

IIKQGCEFENTVEKWISI [CXCR4 segment 269-286]
radioactive counts recorded in twenty minutes [2]: 106 counts | radioactive counts recorded in twenty minutes [3]: 518 counts

IKNLKIEDSDTYICEVED
COUNTS of radiolabeled gp120 retained [1]: 699 counts

LTDVFLVNLPLADLVFVC [STRL33 segment 65-82]
radioactive counts recorded in twenty minutes [5]: 233.5 counts | radioactive counts recorded in twenty minutes [6]: 336.5 counts

THLLAGQSLTLTLES
COUNTS of radiolabeled gp120 retained [11]: 4578 counts and 2956 counts

VTETLGMTHCCINPIIYA [CCR5 segment 281-]
Counts per 20′ Average-background [8]: 15 counts per 20′

IVVLAFQKASSIVYKKEGEQV
COUNTS of radiolabeled gp120 retained [10]: 646 counts

FGLTANSDT
COUNTS of radiolabeled gp120 retained [4]: 563 counts

LTSVSRGSSLKILSKGKR
radioactive counts recorded in twenty minutes [2]: 183 counts | radioactive counts recorded in twenty minutes [3]: 595 counts

IDSFILLEIIKQGCEFEN [CXCR4 segment 261-278]
radioactive counts recorded in twenty minutes [2]: 3472 counts | radioactive counts recorded in twenty minutes [3]: 3884 counts

FPLAFTVEK
COUNTS of radiolabeled gp120 retained [9]: 569 counts

QKASSIVYKKEGEQVEFS
COUNTS of radiolabeled gp120 retained [7]: 602 counts

AEQVEFSFPLAFTVE
COUNTS of radiolabeled gp120 retained [12]: 18042 counts and 18546 counts

SFPLAFTVEKLT
COUNTS of radiolabeled gp120 retained [9]: 528 counts

IFANVSEADDRYICDRFY
radioactive counts recorded in twenty minutes [2]: 267 counts | radioactive counts recorded in twenty minutes [3]: 679 counts

NYYTSEPCQKINVKQIAA [CCR5 segment 13-30]
Counts per 20′ Average-background [8]: 6 counts per 20′

QGNFPLIIKNLKIEDSDT
COUNTS of radiolabeled gp120 retained [1]: 564 counts

IFLVMAVFLLTQMPFNLM [STRL33 segment 233-250]
radioactive counts recorded in twenty minutes [5]: 386.5 counts | radioactive counts recorded in twenty minutes [6]: 772.5 counts

IEDSDTYICEVE
COUNTS of radiolabeled gp120 retained [4]: 1107 counts

GEQVEASFPLAFTVE
COUNTS of radiolabeled gp120 retained [12]: 6793 counts and 6533 counts

TEAIAYLRACLNPVLYAF [STRL33 segment 273-290]
radioactive counts recorded in twenty minutes [5]: 604.5 counts | radioactive counts recorded in twenty minutes [6]: 480.5 counts

QKKVEFKIDIVVLAFQKA
COUNTS of radiolabeled gp120 retained [7]: 1013 counts

SIYTSDNYTEEMGSGDYD [CXCR4 segment 5-22]
radioactive counts recorded in twenty minutes [2]: 71 counts | radioactive counts recorded in twenty minutes [3]: 483 counts

KASSIVYKKEGEQVE
COUNTS of radiolabeled gp120 retained [7]: 563 counts

LNPEAGMWQCLLSDSGQVLLE [human CD4 361-381]
number of radioactive decays (counts) counted: 6316 counts

NQKKVEFKIDIV
COUNTS of radiolabeled gp120 retained [9]: 532 counts

VFGLTANSDTHL
COUNTS of radiolabeled gp120 retained [4]: 548 counts

EEVQLLVFGLTTNSD
COUNTS of radiolabeled gp120 retained [11]: 20021 counts and 20100 counts

QGNFPLIIK
COUNTS of radiolabeled gp120 retained [4]: 508 counts

TANSDTHLLQGQSLTLTL
COUNTS of radiolabeled gp120 retained [1]: 891 counts

VIIKTLLHAGGFQKERSL
radioactive counts recorded in twenty minutes [5]: 961.5 counts | radioactive counts recorded in twenty minutes [6]: 682.5 counts

IVVLAFQKA
COUNTS of radiolabeled gp120 retained [9]: 602 counts

ASSIVYKKEGEQVEFSFP
COUNTS of radiolabeled gp120 retained [7]: 701 counts

LAFTVEKLTGSG
COUNTS of radiolabeled gp120 retained [9]: 608 counts

GEQVEFSFPLAFTVA
COUNTS of radiolabeled gp120 retained [12]: 18371 counts and 18187 counts

LIIKNLKIE
COUNTS of radiolabeled gp120 retained [4]: 515 counts

TEEMGSGDYDSMKEPCFR [CXCR4 segment 13-30]
radioactive counts recorded in twenty minutes [2]: 41 counts | radioactive counts recorded in twenty minutes [3]: 453 counts

EEVQLLVAGLTANSD
COUNTS of radiolabeled gp120 retained [11]: 9573 counts and 11480 counts

SIVYKKEGEQVEFSFPLA
COUNTS of radiolabeled gp120 retained [7]: 771 counts
